Measured values taken from patent publication US20260250640A1, “NOVEL COMPOSITIONS AND THEIR USE TO INCREASE MOTILITY, VIABILITY AND LIFESPAN OF SPERM CELLS AND FERTILITY” (IMV TECHNOLOGIES, priority 2023, published 2026).

Tested on: bull semen
Protocol: • a 2.4 mM BaCl2 solution in OptiXcell was prepared, • 1 mL of this solution was resuspended in a 5 mg vial of DMNP-EDTA, • 1.5 mL of DMNP-EDTA were added for a final DMNP-EDTA concentration of 2.6 mM, • The solution was kept away from light, • The solution was contacted with semen in different chelator/semen ratios: • 1:1=>500 μL chelators+500 μL bull semen at 57 Mspz/mL • 1:0.75=>500 μL chelators+375 μL bull semen at 57 Mspz/mL • 1:0.5=>500 μL chelators+250 μL bull semen at 57 Mspz/mL • 1:0.25=>500 μL chelators+125 μL bull semen at 57 Mspz/mL • A BaCl2 solution only: 500 μL BaCl2 at 2.4 mM+500 μL bull semen at 57 Mspz/mL was prepared • The following analyses have been performed on frozen bull semen: • Mobility analysis on IVOS II™ at T=0 and T3H 37° C., • Acrosome integrity analysis on EasyCyte at T=0 and T3H 37° C., • Viability analysis on EasyCyte at T=0 and T3H 37° C. • Mitochondrial activity analysis on EasyCyte at T=0 and T3H 37° C.
The control corresponds to OptiXcell alone.

Row | SMILES | sperm viability (T=3H 37° C.) | impact on viability | sperm viability, difference vs. Control | impact on mobility (T0 and T3H 37° C., conclusion) | sperm motility, difference vs control (OptiXcell alone) (T=3H 37° C., 1/1 chelator/semen) | sperm motility (presence of chelator (BaCl2/DMNP-EDTA solution in OptiXcell), T=0 and T3H 37° C.)
1 | [Ba+2].[Cl-].[Cl-] [BaCl2] | remained unchanged | – | – | – | – | –
2 | COc1cc(C(CN(CC(=O)O)CC(=O)O)N(CC(=O)O)CC(=O)O)c([N+](=O)[O-])cc1OC (stereo not drawn) [chelator, DMNP-EDTA] | – | No major impact | +13 pts | No major impact | +9 pts | not affected
